From patent US10208152B2, “Poly(ethylene glycol)-b-poly(halomethylstyrene), derivative thereof, and method for producing same” (priority 2014, dated 2019)
Like-named read-outs stand apart in the source and are kept apart here.

Tested on: acetaminophen-induced hepatotoxicity
Conditions: for Prothrombin time (indicator of hepatic function): FIG. 17
Protocol: Group 1: Untreated control (4 mice in this group only)
Group 2: 3 mg/kg of acetaminophen administered orally on the 7th day from the start of the test
Group 3: 1 mL of the blank micelles (6.25 mg/mL, 160 mg/kg) synthesized in Example 21 forcibly administered once per day via a feeding tube, 3 m g/kg of acetaminophen administered orally on the 7th day from the start of the test.
Group 5: 170 mg/kg of 4-amino-TEMPO forcibly administered once per day via a feeding tube, 3 mg/kg of acetaminophen administered orally on the 7th day from the start of the test.
Group 6: 600 mg/kg of acetylcysteine forcibly administered once per day via a feeding tube, 3 mg/kg of acetaminophen administered orally on the 7th day from the start of the test.

[1] = 6 mice before test, substance once per day by feeding tube (newRNP^N Example 16, m=13, 160 mg/kg; 4-amino-TEMPO 170 mg/kg; acetylcysteine 600 mg/kg), 3 mg/kg acetaminophen orally on 7th day
[2] = oral once per day, 3 mg/kg acetaminophen on 7th day, newRNP^N m=13

Row | SMILES | Numbers of mice alive, After test [1] | Prothrombin time (indicator of hepatic function) [2] | Toxicity by albumin quantity and AST, ALT and ALP enzyme levels (oral once per day, 3 mg/kg acetaminophen on 7th day, newRNP^N m=13, FIGS. 19 to 22) | Numbers of mice alive, After test (IGS, mouse, in vivo, po, 3 mg/kg, 1 day) | Share of mice that died within 1 day (acetaminophen alone, 3 mg/kg orally (group 2)) | Superoxide dismutase (SOD) production (oral once per day, 3 mg/kg acetaminophen on 7th day, newRNP^N m=13, FIG. 18)
1 | CC1(C)CC(N)CC(C)(C)N1[O] [4-amino-TEMPO] | 2 | extended | extremely high toxicity |  |  | 
2 | CC(=O)Nc1ccc(O)cc1 [acetaminophen] |  |  |  | 2 | two thirds | significant decrease
3 | CC(=O)N[C@@H](CS)C(=O)O [acetylcysteine] | 4 | extended |  |  |  | 
